Test results reported in patent EP4603481A1, “PREPARATION AND USE OF CATIONIC LIPID MATERIAL” (Nanjing Geneleap Biotechnology Co., Ltd., priority 2022, dated 2024).
Entries after “also recorded” stand apart in the source; their conditions may differ.

What was measured:
Balb/c mice [1] = assay: Animal transfection of lipid nanoparticles, in vivo imaging after 12 h; settings: for Multiple of local photon intensity in the supine position relative to MC3 / Multiple of photon intensity of the viscera in the supine position relative to MC3: Table 8, 0.1 mg/kg FFluc mRNA, 12 h; for Multiple of local photon intensity in the supine position relative to MC3: injection site; for Multiple of photon intensity of the viscera in the supine position relative to MC3: viscera (liver); for toxic and side effect on the liver: inferred from expression in the liver 12 h after administration
Experimental: (§1) Balb/c mice (available from Vital River Laboratory Animal Technology Co., Ltd., male, 6-8 weeks old, 20-24 g) were randomized into groups, 5 mice per group. The mice were injected the prepared lipid nanoparticles into the leg muscle at a dose of 0.1 mg/kg (calculated as to FFluc mRNA (SEQ ID NO.1)) and observed by in vivo imaging after 12 h. The injection sites on the bellies and legs of Balb/c mice were depilated, and after anesthesia, the animals were injected D-luciferin potassium salt intraperitoneally, and were observed and photographed in an IVIS living body imager (PerkinElmer, Series III), wherein the observation time of living body images was within 15 min after the injection of substrate. Table 7. Results of animal transfection efficiency of lipid nanoparticles made from different cationic lipids

Balb/c mice [2] = assay: Animal transfection of lipid nanoparticles, in vivo imaging after 24 h; settings: leg muscle injection, 0.1 mg/kg FFluc mRNA; for Multiple of total photon intensity in the supine position relative to MC3: Table 5, Balb/c mice; for Multiple of local photon intensity in the supine position relative to MC3: Table 5, injection site
Experimental: as §1, with “24” for “12”, “5.” for “7.”

SMILES	Multiple of local photon intensity in the supine position relative to MC3 (Balb/c mice [1])	Multiple of total photon intensity in the supine position relative to MC3 (Balb/c mice [2])	Multiple of local photon intensity in the supine position relative to MC3 (Balb/c mice [2])	Multiple of local photon intensity in the supine position relative to MC3 (Balb/c mice [1]; 0.1 mg/kg)	Multiple of photon intensity of the viscera in the supine position relative to MC3 (Balb/c mice [1])	toxic and side effect on the liver (Balb/c mice [1])
CCCCCCCCC(CCCCCC)C(=O)OCC(CN(C)CCN1CCCC1)OC(=O)C(CCCCCC)CCCCCCCC (stereo not drawn) [Compound 1]	not weaker than that of MC3 LNP	1.668	significantly higher			
CCCCCCCCC(CCCCCC)C(=O)OCC(CN(C)CCN1CCN(C)CC1)OC(=O)C(CCCCCC)CCCCCCCC (stereo not drawn) [Compound 2]	not weaker than that of MC3 LNP	equivalent	significantly higher			
CCCCCCCCC(CCCCCCCC)OC(=O)CCCCC(=O)OCC(CN(C)CCN1CCN(C)CC1)OC(=O)CCCCC(=O)OC(CCCCCCCC)CCCCCCCC (stereo not drawn) [Compound 17]				equivalent; also recorded: not weaker than that of MC3 LNP	almost have no expression in the liver	completely avoid liver toxicity; also recorded: completely avoid the toxic and side effect on the liver
CCCCCCCCC(CCCCCCCC)OC(=O)CCCCC(=O)OCC(CN(C)CCN1CCCC1)OC(=O)CCCCC(=O)OC(CCCCCCCC)CCCCCCCC (stereo not drawn) [Compound 18]				equivalent; also recorded: not weaker than that of MC3 LNP	almost have no expression in the liver	completely avoid liver toxicity; also recorded: completely avoid the toxic and side effect on the liver
